The supplement of paper PMC12420376

Key:
OVCAR8 = assay: drug sensitivity score (DSS2) on cancer cell count; higher = more sensitive; extreme values may be limits of the assay; conditions: 72 h
Outline: (§1)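 Ovarian cancer cells were cultured either alone or directly mixed 1:1 with lung or skin fibroblasts and plated onto 384-well plates acoustically pre-spotted with 528 approved and investigational compounds at 5 concentrations for 72 h of treatment. After fixation, cells were immunostained for CK8/18 with Hoechst and imaged at 10× across 4 fields to count cancer cells. Responses were fitted with 4-parameter logistic curves, and from these fits a drug sensitivity score was derived in Breeze, with screen quality assessed by Z'.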

KURAMOCHI = assay: as above; conditions: 72 h
Outline: as §1

[1] = co-cultured fibroblast: BJHTERT
[2] = co-cultured fibroblast: none (monoculture)

Structure (SMILES) | drug sensitivity score (OVCAR8; [1]) | drug sensitivity score (OVCAR8; co-cultured fibroblast: WI38) | drug sensitivity score (OVCAR8; [2]) | drug sensitivity score (KURAMOCHI; [1]) | drug sensitivity score (KURAMOCHI; co-cultured fibroblast: WI38) | drug sensitivity score (KURAMOCHI; [2])
CN1CCN(c2nc(C3=C(c4c[nH]c5ccccc45)C(=O)NC3=O)c3ccccc3n2)CC1 [Sotrastaurin] | 0.2 DSS | 2.6 DSS | 0 DSS | 1.1 DSS | 0.6 DSS | 12 DSS
CN(C)CC#Cc1ccc(OCCCc2sc(N3CCc4cccc(C(=O)Nc5nc6ccccc6s5)c4C3)nc2C(=O)O)c(F)c1 | 4.3 DSS | 0 DSS | 0.7 DSS | 4.1 DSS | 6.1 DSS | 6.9 DSS
CN1CCC(COc2cnc(-c3cccc(Cn4nc(-c5cccc(C#N)c5)ccc4=O)c3)nc2)CC1 [Tepotinib] | 0 DSS | 0 DSS | 1.8 DSS | 0.2 DSS | 0 DSS | 3 DSS
CC(C)(O)CNc1nc(Nc2ccnc(C(F)(F)F)c2)nc(-c2cccc(C(F)(F)F)n2)n1 [Enasidenib] | 0 DSS | 0 DSS | 0 DSS | 0.3 DSS | 0 DSS | 0 DSS
Cc1c(F)cc(C(=O)NC2CC2)cc1-c1ccc(C(=O)NCC(C)(C)C)cn1 [Losmapimod] | 0.7 DSS | 0 DSS | 1.5 DSS | 2.4 DSS | 0 DSS | 0 DSS
CC(=O)c1c(C)c2cnc(Nc3ccc(N4CCNCC4)cn3)nc2n(C2CCCC2)c1=O [Palbociclib] | 6.6 DSS | 0.3 DSS | 3.9 DSS | 6.2 DSS | 7.5 DSS | 13.9 DSS
CCCN(CCC)C(=O)C1=Cc2ccc(-c3ccc(C(=O)N4CCCC4)cc3)cc2N=C(N)C1 [Motolimod] | 0 DSS | 0 DSS | 2.4 DSS | 1.3 DSS | 0 DSS | 1 DSS
O=c1sn(-c2cccc3ccccc23)c(=O)n1Cc1ccccc1 [Tideglusib] | 0.4 DSS | 1.5 DSS | 0 DSS | 0 DSS | 0 DSS | 0 DSS
NC(=S)N/N=C/c1ncccc1N [Triapine] | 5.2 DSS | 9.3 DSS | 8.7 DSS | 4.5 DSS | 6.3 DSS | 8.2 DSS
Cc1nc(=O)c2cc(CN(C)c3ccc(C(=O)N[C@@H](CCC(=O)O)C(=O)O)s3)ccc2[nH]1 [Raltitrexed] | 16.4 DSS | 18.3 DSS | 15.9 DSS | 11.2 DSS | 16.8 DSS | 10.4 DSS
COc1cc2ncnc(Nc3ccc(F)c(Cl)c3)c2cc1NC(=O)/C=C/CN1CCCCC1 [Dacomitinib] | 5.5 DSS | 0 DSS | 3.2 DSS | 7 DSS | 3.7 DSS | 8.3 DSS
Cc1cnc(-c2ccccc2C(C)C)nc1NCc1ccc(-n2ccnn2)cc1 [ML323] | 2.9 DSS | 0 DSS | 3.8 DSS | 0 DSS | 1.3 DSS | 1.9 DSS
CCN1C(=O)CNc2ncc(-c3ccc(-c4nc[nH]n4)nc3C)nc21 [CC-115] | 20.1 DSS | 4.8 DSS | 8.7 DSS | 6.9 DSS | 5.7 DSS | 15.1 DSS
COc1ccc(S(=O)(=O)Nc2cccnc2Nc2ccc(O)cc2)cc1 [ABT-751] | 18.7 DSS | 15.9 DSS | 19.3 DSS | 14.5 DSS | 17.3 DSS | 17.9 DSS
CC1=C2C[C@H]3[C@@H](CC[C@@H]4C[C@H](NS(C)(=O)=O)CC[C@@]43C)[C@@H]2CC[C@@]2(C1)O[C@@H]1C[C@H](C)CN[C@H]1[C@H]2C [Saridegib] | 0 DSS | 0 DSS | 0 DSS | 3.1 DSS | 3.9 DSS | 4.2 DSS
Cc1nc(NC(=O)N2CCC[C@H]2C(N)=O)sc1-c1ccnc(C(C)(C)C(F)(F)F)c1 [Alpelisib] | 0 DSS | 0 DSS | 0.4 DSS | 0 DSS | 0 DSS | 0 DSS
COc1cc2c(Oc3ccc4[nH]c(C)cc4c3F)ncnc2cc1OCCCN1CCCC1 [Cediranib] | 0 DSS | 0 DSS | 0 DSS | 0 DSS | 0 DSS | 0 DSS
CCC(C)n1ncn(-c2ccc(N3CCN(c4ccc(OCC5COC(Cn6cncn6)(c6ccc(Cl)cc6Cl)O5)cc4)CC3)cc2)c1=O (stereo not given) [Itraconazole] | 1 DSS | 11.5 DSS | 0.1 DSS | 0 DSS | 0 DSS | 0 DSS
CCN1CCN(Cc2ccc(Nc3ncc(F)c(-c4cc(F)c5nc(C)n(C(C)C)c5c4)n3)nc2)CC1 [Abemaciclib] | 9.4 DSS | 0 DSS | 2.4 DSS | 5.5 DSS | 7.8 DSS | 0.2 DSS
Cc1cc([C@@H](C)Nc2ccccc2C(=O)O)c2nc(N3CCOCC3)cc(=O)n2c1 [AZD-6482] | 1.2 DSS | 0 DSS | 0 DSS | 6.1 DSS | 1.5 DSS | 4.4 DSS

Structure (SMILES) | drug sensitivity score (OVCAR8; [1]) | drug sensitivity score (OVCAR8; co-cultured fibroblast: WI38) | drug sensitivity score (OVCAR8; [2]) | drug sensitivity score (KURAMOCHI; [1]) | drug sensitivity score (KURAMOCHI; co-cultured fibroblast: WI38) | drug sensitivity score (KURAMOCHI; [2])
CNC(=O)c1cccc(-c2ccc3c(N4CCOC[C@@H]4C)nc(N4CCOC[C@@H]4C)nc3n2)c1 [Vistusertib] | 13.1 DSS | 7.6 DSS | 16.1 DSS | 10.6 DSS | 8.3 DSS | 7.5 DSS
N#CCNC(=O)c1ccc(-c2ccnc(Nc3ccc(N4CCOCC4)cc3)n2)cc1 [Momelotinib] | 11.3 DSS | 10.9 DSS | 10.1 DSS | 7.5 DSS | 10.1 DSS | 7.6 DSS
CNC(=O)CN1CCC(Oc2cc3c(Nc4cccc(Cl)c4F)ncnc3cc2OC)CC1 [Sapitinib] | 1.7 DSS | 1 DSS | 1.7 DSS | 2.3 DSS | 0 DSS | 0 DSS
Nc1nc2[nH]cc(CCc3ccc(C(=O)N[C@@H](CCC(=O)O)C(=O)O)cc3)c2c(=O)[nH]1 [Pemetrexed] | 16.4 DSS | 19.3 DSS | 25.5 DSS | 10.1 DSS | 16 DSS | 13.6 DSS
N#CC[C@H](C1CCCC1)n1cc(-c2ncnc3[nH]ccc23)cn1 [Ruxolitinib] | 1.3 DSS | 2.7 DSS | 2.5 DSS | 0 DSS | 0 DSS | 0 DSS
COc1ccc(-c2ccc3c(N4CCOC[C@@H]4C)nc(N4CCOC[C@@H]4C)nc3n2)cc1CO [AZD8055] | 17.9 DSS | 11.4 DSS | 21 DSS | 21.3 DSS | 18.1 DSS | 19 DSS
C[C@H]1CNCCCN1S(=O)(=O)c1cccc2cncc(F)c12 [Ripasudil] | 3 DSS | 6.9 DSS | 0.2 DSS | 1.8 DSS | 0 DSS | 0.4 DSS
Nc1nc(F)nc2c1ncn2[C@@H]1O[C@H](CO)[C@@H](O)[C@@H]1O [Fludarabine] | 8 DSS | 8.5 DSS | 13.4 DSS | 0.3 DSS | 4.5 DSS | 0 DSS
Cc1nc(Nc2ncc(C(=O)Nc3c(C)cccc3Cl)s2)cc(N2CCN(CCO)CC2)n1 [Dasatinib] | 13.6 DSS | 21.9 DSS | 21.9 DSS | 18.4 DSS | 17 DSS | 20.4 DSS
CCn1cc(-c2ccnc3[nH]c(-c4cccc(CN(C)C)c4)cc23)c(-c2ccc(NC(=O)N(C)C)cc2)n1 | 12.3 DSS | 4.4 DSS | 10 DSS | 13.7 DSS | 15.5 DSS | 14.2 DSS
Nc1nc2cc(-c3ccc4ncc(C(=O)N5CCOCC5)n4c3)ccc2o1 [Serabelisib] | 0.8 DSS | 0 DSS | 0 DSS | 3.3 DSS | 0.4 DSS | 3.1 DSS
CC(C)[C@@H](CS(=O)(=O)C(C)C)N1C(=O)[C@@](C)(CC(=O)O)C[C@H](c2cccc(Cl)c2)[C@H]1c1ccc(Cl)cc1 [AMG-232] | 1.6 DSS | 0 DSS | 0.7 DSS | 0.2 DSS | 0 DSS | 0.5 DSS
COc1cc(OC)c(/C=C/S(=O)(=O)Cc2ccc(OC)c(NCC(=O)O)c2)c(OC)c1 [Rigosertib] | 27.7 DSS | 28.9 DSS | 30.4 DSS | 24 DSS | 24.1 DSS | 28.8 DSS
CC(O)(CS(=O)(=O)c1ccc(F)cc1)C(=O)Nc1ccc(C#N)c(C(F)(F)F)c1 (stereo not given) [Bicalutamide] | 0.1 DSS | 0 DSS | 0 DSS | 0 DSS | 0 DSS | 0 DSS
COc1cccc(-c2ccc(NC(=O)C3=C(C(=O)O)CCC3)c(F)c2)c1 [Vidofludimus] | 0 DSS | 1.6 DSS | 2 DSS | 1.5 DSS | 0.4 DSS | 1.9 DSS
FC(F)(F)c1ccc(CNc2ccc(Cc3c[nH]c4ncc(Cl)cc34)cn2)cn1 [Pexidartinib] | 0 DSS | 0.1 DSS | 0.7 DSS | 0 DSS | 1.4 DSS | 12.1 DSS
CC1(C)NC(=O)N(c2ccc([N+](=O)[O-])c(C(F)(F)F)c2)C1=O [Nilutamide] | 0 DSS | 0 DSS | 0 DSS | 0 DSS | 3.2 DSS | 14.5 DSS
NC(=O)N1CCC(CC(=O)N2CCC([C@H]3c4ncc(Br)cc4CCc4cc(Cl)cc(Br)c43)CC2)CC1 [Lonafarnib] | 14.5 DSS | 4.9 DSS | 10.3 DSS | 13 DSS | 13.9 DSS | 13.2 DSS
CO[C@@H]1[C@H](N(C)C(=O)c2ccccc2)C[C@H]2O[C@]1(C)n1c3ccccc3c3c4c(c5c6ccccc6n2c5c31)C(=O)NC4 [Midostaurin] | 13.3 DSS | 16.5 DSS | 13 DSS | 16.2 DSS | 14.8 DSS | 11.6 DSS
O=C(/C=C\n1cnc(-c2cc(C(F)(F)F)cc(C(F)(F)F)c2)n1)NNc1ccccn1 [Verdinexor] | 10.2 DSS | 7.1 DSS | 16.6 DSS | 8.4 DSS | 9.1 DSS | 16.7 DSS
